{"source": "paper PMC7853623", "about": "“Dose- and time-dependent tolerability and efficacy of organo-osmium complex FY26 and its tissue pharmacokinetics in hepatocarcinoma-bearing mice” (Metallomics: Integrated Biometal Science, 2020)", "tested_on": "Hepa1–6-Per2-luc hepatocarcinoma tumours", "test": "Antitumour efficacy in Hepa1–6-bearing C57Bl/6 mice (Experiments 3 and 4)", "type": "in vivo", "settings": "for percentage tumour inhibition relative to control: Experiment 4, end", "procedure": "Male CD1-Foxn1^nu or C57Bl/6 (B6) mice aged 5–10 weeks (Janvier, Le Genest St Isle, France) were housed in groups of three to four mice per cage in temperature-controlled (23 ± 1°C), ventilated (100 ± 10 l/min), and light-tight chronobiological animal facilities (Eurobioconcept, Bonneuil s/Marne, France). They were synchronized with an alternation of 12 h of light (L) and 12 h of darkness (D) (LD12:12), with light starting at 07:00, and had ad libitum access to food and water throughout all the experiments. In line with convention, onset of light and that of darkness are referred to as Zeitgeber time 0 (ZT0) and ZT12, respectively. After one or more weeks on this regimen and on the day prior to tumour inoculation, both flanks of each B6 mouse were shaved using clippers.\nMouse hepatocarcinoma (Hepa1–6, ATCC® CRL-1830™) was kindly provided by S. Dulong (INSERM U935, Villejuif, France), following their stable transfection with the Per2-luc [pLV7-Bsd-P(Per2)-dLuc] reporter constructs within the C5SYS ERASYSBIO+ project (FP7). Mouse Hepa1–6-Per2-luc cells were cultured in 15-cm Petri dishes until they reached 80% confluency. On the day of tumour inoculation, the cells were trypsinized and resuspended at a concentration of 10^6 cells/100 µl in PBS solution alone (Experiments 1 and 2) or with 1:1 MatriGel™ (Corning, Flintshire, UK) (Experiments 3–5) and kept on ice until injected.\nThe mice, aged 8–10 weeks, were anesthetized under isoflurane and Hepa1–6-Per2-luc cells were injected subcutaneously in both postero-lateral flanks of each mouse. Mice were then inspected and weighed daily until experiment completion. Tumour sites were inspected daily until tumours became palpable and amenable to daily measurements of perpendicular diameters using callipers. Measurements were always taken at the same circadian time.\nMean daily tumour weight per mouse was calculated as the average volume of the right and left flank tumours according to (L × W^2)/2, where L is the larger and W the smaller perpendicular diameter, and 1 cm^3 corresponds to 1 g. Mice with an estimated tumour weight exceeding 10% of their body weight or those in poor general condition or loosing >15% of their starting body weight were euthanized, in compliance with our Home Office Project Licence specifications approved by the Animals in Science Committee and Animal Welfare and Ethical Review Body.\nExperiment 3 aimed at assessing the efficacy and tolerability of the more soluble formulation of FY26⋅Cl in Hepa1–6-bearing C57Bl/6 mice. The mice were randomized to receive vehicle or FY26⋅Cl, at a cumulative dose of 60 mg/kg. Treated mice received ip injections of 20 mg/kg of FY26⋅Cl at ZT6 12, 14, and 17 days after tumour inoculation. Control mice received ip vehicle on the same days.\nExperiment 4 aimed at confirming efficacy and optimizing timing and scheduling of the same cumulative dose of 60 mg/kg of FY26⋅Cl. Mice were randomized to receive either vehicle or FY26⋅Cl as four injections of 15 mg/kg at ZT6 or ZT18 on days 11, 14, 17, and 21.\nFor Experiments 1 and 2, FY26⋅PF6 was diluted in the vehicle, composed of 1% Tween 80 (Sigma-Aldrich, Gillingham, UK), 5% DMSO (Corning, New York, USA) and 94% of 0.9% saline (Prep room, Life Sciences, University of Warwick) under laminar flow. FY26⋅PF6 concentration was confirmed with ICP-MS. For Experiments 3–5, using FY26⋅Cl, a stock solution of 50 mg/ml FY26⋅Cl was prepared in 0.9% saline on the day of injection and diluted as required; the vehicle consisted of 0.9% saline.\nBody weight data were expressed as % body weight measured on the first treatment day. Tumour weights for individually treated mice were expressed as % of the median control values, in order to determine % inhibition. Mean and standard error or median and interquartiles were computed for the different treatment groups and experimental conditions, i.e. drug timing and day of assessment. Groups were compared using parametric or non-parametric ANOVAs, respectively."}
{"smiles": "CN(C)c1ccc(N=Nc2ccccn2)cc1.Cc1ccc(C(C)C)cc1.[Cl-].[I-].[Os+2]", "note": "[FY26⋅Cl]", "values": [{"measurement": "median percentage tumour inhibition relative to controls", "setting": "Experiment 3, at completion, 20 mg/kg ip × 3 at ZT6", "result": 76.5, "unit": "%"}, {"measurement": "median tumour weight, treatment group", "setting": "Experiment 3, day 20, 20 mg/kg ip × 3 at ZT6 (control 128.8 mg)", "result": 30.2, "unit": "mg"}, {"measurement": "median percentage tumour inhibition relative to controls", "setting": "Experiment 4, at completion, 15 mg/kg ip × 4, irrespective of dosing time", "result": 42.6, "unit": "%"}, {"measurement": "median tumour weight, treatment groups ZT6 and ZT18", "setting": "Experiment 4, day 23, 15 mg/kg ip × 4 (control 213.2 mg)", "result": 122.3, "unit": "mg"}, {"measurement": "percentage tumour inhibition relative to control", "setting": "15 mg/kg ip × 4 at ZT6", "result": 12.5, "unit": "%"}, {"measurement": "percentage tumour inhibition relative to control", "setting": "15 mg/kg ip × 4 at ZT18", "result": 66, "unit": "%"}, {"measurement": "tumour inhibition as compared to controls", "setting": "hepatocarcinoma-bearing mice, overall statement in discussion", "result": "~60", "unit": "%"}]}
